Source: patent US4233403A, “Amylase assay” (E. I. Du Pont de Nemours and Company, priority 1978, dated 1980)
Several values for one entry are separate records, joined by “and”; a condition that tells them apart may be missing. Identical values can stand only once.

Experiments:
[1] = test system: α-amylase; experiment: amylase assay with nitrophenyl oligosaccharide substrate plus α-glucosidase, rate at 410 nm, standard curve; assay type: biochemical; conditions: for Sensitivity: 4 mg/3 ml G4 pNp, 7.5 IU/3 ml α-glucosidase, pH 6.5, 37° C., 410 nm, from standard curve
Description: A sample of α-(4-nitrophenyl) maltotetraoside (G4 pNp) prepared in accordance with Example 1H of U.S. Patent Application Ser. No. 704,975, filed on the same day as this application, was dissolved in 66.7 mM sodium phosphate buffer, pH 6.5, to provide various substrate concentrations ranging from 2 to 8 mg/3 ml. As described in U.S. Ser. No. 704,975, this substrate sample has been purified using a Sephadex® LH-20 Chromatographic Column. α-Glucosidase of various concentrations ranging from 2.5 to 12.5 International Units per three milliliters of solution (IU/3 ml) was then added to the substrate solution and the volume of the solution was brought up to 3.0 ml. The solution was incubated at 37° C. for 1 to 10 minutes.
(§1) After the blank rate was measured at 410 nm, using a Gilford spectrophotometer, the reaction was initiated by adding 0.1 ml of an Elevated Enzyme Control Product sold by the E. I. du Pont de Nemours and Company (1150 Somogyi Units per deciliter (SU/dl) amylase) diluted 1:1 with Du Pont Enzyme Diluent. This level of amylase is approximately six times the upper normal serum level. The total reaction rate was then measured using the Gilford spectrophotometer, and by subtracting the blank rate from the total rate, the net reaction rate was obtained.
Using these optimum values of G4 pNp and α-glucosidase in a reaction solution of 3 ml, the reaction rates for various amylase sample concentrations were measured and a standard curve was generated. From this curve, the sensitivity in mA/min/SU/dl was measured. The standard curve for this sample is given in FIG. 1; the blank rate and sensitivity are given for this and other examples in Table II.
(§2) The G4 pNp so formed was dissolved in 66.7 mM sodium phosphate buffer, pH 6.5, to provide a substrate concentration of 4 mg/3 ml. Then 7.5 IU/3 ml of α-glucosidase was added to the substrate solution and the volume of the solution was brought up to 3.0 ml. The solution was incubated at 37° C. for one to ten minutes.
(§3) After the blank rate was measured, as described in Example 1 above, the reaction was […] by adding 0.1 ml of Du Pont Elevated Enzyme Control Product, diluted 1:1 with Du Pont Enzyme Diluent. The reaction rates for various amylase sample concentrations were measured as discussed in Example 1 above, and a standard curve was generated. From this curve, the sensitivity in mA/min/SU/dl was measured.
as §2, with “A sample of α-(4-nitrophenyl) maltotetraoside, prepared in accordance with Example 1G of U.S. Patent Application Ser. No. 704,975,” for “The G4 pNp so formed”
(§4) After the blank rate was measured in a Gilford spectrophotometer at 410 nm, the reaction was initiated by adding 0.1 ml of the Du Pont Elevated Enzyme Control Product, diluted 1:1 with Du Pont Enzyme Diluent. The reaction rates for the various amylase sample concentrations were measured, using the Gilford spectrophotometer, and a standard curve was generated. From this curve, the sensitivity in mA/min/SU/dl was measured.
A sample of α-(4-nitrophenyl) maltopentaoside (G5 pNp), prepared in accordance with Example 2E of U.S. Patent Application Ser. No. 704,975, was dissolved in 66.7 mM sodium phosphate buffer, pH 6.5, to provide various substrate concentrations ranging from 4.0 to 12.0 mg/3 ml. α-Glucosidase of various activity ranging from 15 to 45 IU/3 ml was then added to the substrate solution and the volume of the solution was brought up to 3.0 ml. The solution was incubated at 37° C. for one to ten minutes.
Initial tests were conducted using 4.0 mg/3 ml G5 pNp and three α-glucosidase concentrations, 7.0, 14.0, and 28.0 IU/3 ml. […]

[2] = test system: α-glucosidase; experiment: blank rate: release of 4-nitrophenol from the substrate by the maltase without amylase; assay type: biochemical
Description: When a maltase, such as α-glucosidase is used, a side reaction which gives rise to a blank rate occurs because of the reactivity of the maltase with the substrate. This means that even in the absence of α-amylase, there will be release of the phenol. Since the maximum velocity of product release from maltase decreases with increasing n, the growth of a blank rate is slower as n increases. One would expect, then, that the blank rate for G5 would be less than that for G4. This is verified by experimentation. However, an additional factor is involved in the choice between higher and lower oligosaccharides (i.e., G4 or G5) as the substrate. In all reactions of the substrate with amylase and reactions of maltase with the substrate, the rate increases, as a function of substrate concentration, to an optimum, at which point it levels off. The substrate concentration at which optimization occurs appears to increase with increasing n so that more of the substrate (and the maltase) must be used to optimize (linearize) the standard curve. For expensive chemicals, this is an important consideration.
A sample of α-(4-nitrophenyl) maltotetraoside (G4 pNp) prepared in accordance with Example 1H of U.S. Patent Application Ser. No. 704,975, filed on the same day as this application, was dissolved in 66.7 mM sodium phosphate buffer, pH 6.5, to provide various substrate concentrations ranging from 2 to 8 mg/3 ml. […]
as §1, with “This level of amylase is approximately six times the upper normal serum level.” left out, “obtained. […]” for “obtained.”
as §3, with “measured. […]” for “measured.”
as §4, with “measured. […]” for “measured.”

[3] = test system: α-amylase; experiment: cleavage of α-(4-nitrophenyl)maltoside by α-amylase; assay type: biochemical, human
Description: A. P. Jansen and P. G. A. B. Wydeveld, Nature, 182, 525 (1958) postulate that α-(p-nitrophenyl)maltoside could be a substrate for an amylase assay. […] They reported: (1) Incubation of samples of human urine, saliva, duodenal contents and only incidentally serum with α-(p-nitrophenyl)maltoside at 37° for 16 hours produces 4-nitrophenol, identified spectrophotometrically by mixing the hydrolyzate with 0.02 N sodium hydroxide. (2) The hydrolysis was inhibited by protein precipitants such as 10% trichloroacetic acid and 0.5 N silver nitrate. […] In contrast to the teaching of Jansen et al., the method of this invention produces amylase analyses in one hour or less.

[4] = 4 mg/3 ml G4 pNp, 7.5 IU/3 ml α-glucosidase, 66.7 mM sodium phosphate pH 6.5, 37° C., 410 nm, no amylase

O=[N+]([O-])c1ccc(O[C@H]2O[C@H](CO)[C@@H](O[C@H]3O[C@H](CO)[C@@H](O[C@H]4O[C@H](CO)[C@@H](O[C@H]5O[C@H](CO)[C@@H](O[C@H]6O[C@H](CO)[C@@H](O)[C@H](O)[C@H]6O)[C@H](O)[C@H]5O)[C@H](O)[C@H]4O)[C@H](O)[C@H]3O)[C@H](O)[C@H]2O)cc1 [G5 pNp, α-(4-nitrophenyl) maltopentaoside]
Sensitivity (estimated, non-linear curves) ([1]; 4.0 mg/3 ml G5 pNp, α-glucosidase 7.0, 14.0, 28.0 IU/3 ml): greater than 0.160 mA/min/IU/dl
Blank Rate ([2]; 4.0 mg/3 ml G5 pNp, α-glucosidase 7.0, 14.0 and 28.0 IU/3 ml (each case), pH 6.5, 37° C.): 3.0 mA/min

O=[N+]([O-])c1ccc(O[C@H]2O[C@H](CO)[C@@H](O[C@H]3O[C@H](CO)[C@@H](O[C@H]4O[C@H](CO)[C@@H](O[C@H]5O[C@H](CO)[C@@H](O)[C@H](O)[C@H]5O)[C@H](O)[C@H]4O)[C@H](O)[C@H]3O)[C@H](O)[C@H]2O)cc1 [Example 2, α-(4-nitrophenyl) maltotetraoside]
Sensitivity [1]: 0.231 mA/min/SU/dl

O=[N+]([O-])c1ccc(O[C@H]2O[C@H](CO)[C@@H](O[C@H]3O[C@H](CO)[C@@H](O)[C@H](O)[C@H]3O)[C@H](O)[C@H]2O)cc1 [α-(4-Nitrophenyl)maltoside]
cleavage of this compound by α-amylase [3]: extremely slow

O=[N+]([O-])c1ccc(O[C@H]2O[C@H](CO)[C@@H](O[C@H]3O[C@H](CO)[C@@H](O[C@H]4O[C@H](CO)[C@@H](O[C@H]5O[C@H](CO)[C@@H](O)[C@H](O)[C@H]5O)[C@H](O)[C@H]4O)[C@H](O)[C@H]3O)[C@H](O)[C@H]2O)cc1 [Example 1, α-(4-nitrophenyl) maltotetraoside]
Sensitivity [1]: 0.115 mA/min/SU/dl
Blank Rate [2, 4]: 5.0 mA/min

O=[N+]([O-])c1ccc(O[C@H]2O[C@H](CO)[C@@H](O[C@H]3O[C@H](CO)[C@@H](O[C@H]4O[C@H](CO)[C@@H](O[C@H]5O[C@H](CO)[C@@H](O)[C@H](O)[C@H]5O)[C@H](O)[C@H]4O)[C@H](O)[C@H]3O)[C@H](O)[C@H]2O)cc1 [Example 4, α-(4-nitrophenyl) maltotetraoside]
Sensitivity [1]: 0.116 mA/min/SU/dl
Blank Rate [2, 4]: 3.0 mA/min

O=[N+]([O-])c1ccc(O[C@H]2O[C@H](CO)[C@@H](O[C@H]3O[C@H](CO)[C@@H](O[C@H]4O[C@H](CO)[C@@H](O[C@H]5O[C@H](CO)[C@@H](O)[C@H](O)[C@H]5O)[C@H](O)[C@H]4O)[C@H](O)[C@H]3O)[C@H](O)[C@H]2O)cc1 [Example 3, α-(4-nitrophenyl) maltotetraoside]
Sensitivity [1]: 0.110 mA/min/SU/dl
increase in sensitivity, end point determination after quenching ([1]; reaction quenched after five minutes with 0.2 M Na2CO3 or 0.002 N NaOH, versus rate assay at pH 6.5): five to ten fold
Blank Rate [2, 4]: 10.3-13.3 mA/min and 10.3 to 13.3 mA/min
